Like-named read-outs stand apart in the source and are kept apart here.
Key:
[1] = test system: P. falciparum 3D7 (CQ-sensitive) erythrocytic stages; test: In vitro drug sensitivity assay (HRP2-ELISA) against erythrocytic stages, Pf3D7; assay type: cell-based; conditions: read-out: IC50 Pf3D7
Experimental: (§1) The in vitro activity of harmicens 20–37 against the erythrocytic stages of CQ-sensitive (Pf3D7) and multidrug-resistant (PfDd2) P. falciparum strains was evaluated following a previously described method (Table 1).
(§2) The antiplasmodial activity of harmicens 20–37 was evaluated against two strains of P. falciparum (3D7—CQ-sensitive, Dd2—multidrug-resistant) as previously described using the histidine-rich protein 2 (HRP2) assay. Briefly, 96-well plates were pre-coated with the tested compounds in a three-fold dilution before ring-stage parasites were added to complete the culture medium at a hematocrit of 1.5% and parasitemia of 0.05%. After three days of incubation at 37 °C, 5% CO2, and 5% oxygen, plates were frozen until HRP2-ELISA analysis. All compounds were evaluated in duplicate in at least two independent experiments. The IC50 was determined using a nonlinear regression analysis of log concentration–response curves using the drc-package v0.9.0 of R v2.6.1 (R Foundation, Vienna, Austria).

[2] = test system: P. falciparum Dd2 (multidrug-resistant) erythrocytic stages; test: In vitro drug sensitivity assay (HRP2-ELISA) against erythrocytic stages, PfDd2; assay type: cell-based; conditions: for IC50: read-out: IC50 PfDd2
Experimental: as §1, §2

[3] = test system: HepG2 (hepatocellular carcinoma); test: MTT cytotoxicity assay, HepG2; assay type: cell-based, human; conditions: read-out: IC50 HepG2
Experimental: (§3) The parent compound harmine, as well as the reference drug 5-fluorouracil, were used as positive controls.
(§4) The experiments were carried out on five human cell lines purchased from American Type Culture Collection (ATCC): HepG2 (hepatocellular carcinoma; ATCC® HB-8065™), SW620 (colorectal adenocarcinoma; ATCC® CCL-227™), HCT116 (colorectal carcinoma; ATCC® CCL-247™), MCF-7 (breast adenocarcinoma; ATCC® HTB-22™), and Hek293T (embryonic kidney cells; ATCC® CRL-3216™). All cell lines were cultured as monolayers and maintained in Dulbecco’s Modified Eagle Medium (DMEM) (Capricorn Scientific, Ebsdorfergrund, Germany) supplemented with 10% fetal bovine serum (FBS) (Capricorn Scientific, Ebsdorfergrund, Germany), 100 U/mL penicillin, and 100 µg/mL streptomycin (Capricorn Scientific, Ebsdorfergrund, Germany) in a humidified atmosphere with 5% CO2 at 37 °C. Cells were seeded in 96-well plates (Corning, Durham, NC, USA) at 5000–7000 cells per well (depending on the cell-doubling time of a specific cell line) in 0.1 mL media and cultured for 24 h. The next day, the medium was aspirated, and cells were treated for 72 h. Only the compounds that led to more than a 50% reduction in mitochondrial metabolic activity at a concentration of 50 µM were selected for further analysis. The following concentrations of selected compounds were used: 25, 10, 5, and 1 µM. Working dilutions were freshly prepared on the day of the testing. A fresh growth medium was added to untreated control cells, which were defined as 100% viable. DMSO (0.13%) in DMEM was considered a negative control. 5-Fluorouracil (5-FU) and harmine were used as positive controls. At the end of treatment, the medium was removed, and cells were incubated for 1 h with 0.5 mg/mL MTT (Abcam, Cambridge, MA, USA) dissolved in serum-deprived DMEM. The MTT-containing medium was then removed, and 0.1 mL isopropanol was added per well to lyse cells and dissolve formazan. The optical density was measured at 570 nm using a microplate reader (VICTOR3, PerkinElmer, Waltham, MA, USA). Each test point was performed in triplicate. The absorbance was directly proportional to the cell viability. The IC50 values (concentration required to decrease viability by 50%) were calculated by using nonlinear regression on the sigmoidal dose–response plots and are expressed as mean ± SD.

[4] = test system: SW620 (colorectal adenocarcinoma); test: MTT cytotoxicity assay, SW620; assay type: cell-based, human; conditions: read-out: IC50 SW620
Experimental: as §3, §4

[5] = test system: HCT116 (colorectal carcinoma); test: MTT cytotoxicity assay, HCT116; assay type: cell-based, human; conditions: for IC50: read-out: IC50 HCT116; for SI (HCT116): selectivity index: ratio of IC50 Hek293T to IC50 HCT116
Experimental: as §3, §4

[6] = test system: MCF-7 (breast adenocarcinoma); test: cells; conditions: for IC50: read-out: IC50 MCF-7; for SI (MCF-7): selectivity index: ratio of IC50 Hek293T to IC50 MCF-7
Experimental: as §3, §4

[7] = test system: Hek293T (embryonic kidney cells); test: MTT cytotoxicity assay, Hek293T; assay type: cell-based, human; conditions: 72 h, read-out: IC50 Hek293T
Experimental: as §3, §4

[8] = CQ-sensitive strain, three days incubation, mean ± SD
[9] = multidrug-resistant strain, three days incubation, mean ± SD
[10] = noncancer cell line, MTT, mean ± SD
[11] = Plasmodium falciparum, DD2, 72 h

IC50 [1, 8] [µM] | IC50 [2, 9] [µM] | IC50 ([6]; 72 h, MTT, mean ± SD) [µM] | SMILES | IC50 ([3]; 72 h, MTT, mean ± SD) [µM] | IC50 ([4]; 72 h, MTT, mean ± SD) [µM] | IC50 ([5]; 72 h, MTT, mean ± SD) [µM] | SI (HCT116) [5] | SI (MCF-7) [6] | IC50 [7, 10] [µM] | also measured
0.35 ± 0.19 | 0.89 ± 0.01 | 6.9 ± 0.5 | Cc1nccc2c1[nH]c1ccc(OCCn3cc(-[c-]4cccc4)nn3)cc12.[Fe+2].c1cc[cH-]c1 [Compound 22, 1-Methyl-6-(2-(4-ferrocenyl-1H-1,2,3-triazol-1-yl)ethoxy)-9H-pyrido[3,4-b]indole] | 8.4 ± 0.9 | 6.5 ± 0.7 | 9 ± 0.7 | 0.8 | 1.1 | 7.3 ± 2.8 | 
13.2 ± 8.54 | 8.03 ± 0.19 | 19.9 ± 1.1 | Cc1nc(CNC(=O)[c-]2cccc2)cc2c1[nH]c1ccccc12.[Fe+2].c1cc[cH-]c1 [Compound 31, N-((1-Methyl-9H-pyrido[3,4-b]indol-3-yl)methyl)ferrocenecarboxamide] | > 50 | > 50 | > 50 | >1 | >2.51 | > 50 | 
0.31 ± 0.01 | 1.09 ± 0.01 | 6.8 ± 0.2 | Cc1nccc2c1[nH]c1ccc(OCc3cn(C[c-]4cccc4)nn3)cc12.[Fe+2].c1cc[cH-]c1 [Compound 27, 6-((1-(Ferrocenylmethyl)-1H-1,2,3-triazol-4-yl)methoxy)-1-methyl-9H-pyrido[3,4-b]indole] | 17 ± 0.3 | 8.1 ± 0.2 | > 50 | < 0.9 | 6.3 | 43 ± 8.6 | activity against MCF-7 relative to 5-FU (fold stronger) [6]: 3–6.5 fold
0.83 ± 0.23 | 1.8 ± 0.35 | 13.2 ± 0.5 | COc1ccc2c3ccnc(C)c3n(CCNC(=O)C[c-]3cccc3)c2c1.[Fe+2].c1cc[cH-]c1 [Compound 37, N-(2-(7-Methoxy-1-methyl-9H-pyrido[3,4-b]indol-9-yl)ethyl)-2-ferrocenylacetamide] | 28 ± 2.5 | 9.9 ± 1.1 | 7.5 ± 0.4 | 4.1 | 2.3 | 30.8 ± 2.4 | 
0.15 ± 0.05 | 1.02 ± 0.52 | 8 ± 0.2 | Cc1nccc2c1[nH]c1cc(OCCn3cc(-[c-]4cccc4)nn3)ccc12.[Fe+2].c1cc[cH-]c1 [Compound 23, 1-Methyl-7-(2-(4-ferrocenyl-1H-1,2,3-triazol-1-yl)ethoxy)-9H-pyrido[3,4-b]indole] | 9.5 ± 0.5 | 7.6 ± 0.1 | 38.6 ± 2.8 | 0.4 | 2.1 | 17.1 ± 1.8 | 
7.85 ± 2.18 | 13 ± 5.9 | 36.9 ± 6.8 | Cc1nc(CNC(=O)C[c-]2cccc2)cc2c1[nH]c1ccccc12.[Fe+2].c1cc[cH-]c1 [Compound 35, N-((1-Methyl-9H-pyrido[3,4-b]indol-3-yl)methyl)-2-ferrocenylacetamide] | > 50 | 25 ± 8.1 | 20.9 ± 1.5 | >2.4 | >1.4 | > 50 | 
0.3 ± 0.09 | 0.66 ± 0.01 | 9.1 ± 1.4 | Cc1nccc2c1[nH]c1cc(OCCNC(=O)[c-]3cccc3)ccc12.[Fe+2].c1cc[cH-]c1 [Compound 32, N-(2-((1-Methyl-9H-pyrido[3,4-b]indol-7-yl)oxy)ethyl)ferrocenecarboxamide] | 15.6 ± 0.3 | 9.9 ± 4 | 6.6 ± 0.8 | 2.8 | 2 | 18.6 ± 0.2 | 

More lines, now with the values behind:

SMILES | IC50 [1, 8] [µM] | IC50 [2, 9] [µM] | IC50 ([6]; 72 h, MTT, mean ± SD) [µM] | IC50 ([3]; 72 h, MTT, mean ± SD) [µM] | IC50 ([4]; 72 h, MTT, mean ± SD) [µM] | IC50 ([5]; 72 h, MTT, mean ± SD) [µM] | SI (HCT116) [5] | SI (MCF-7) [6] | IC50 [7, 10] [µM] | also measured
[Fe+2].c1cc[cH-]c1.c1ccc2c(c1)[nH]c1c(Cn3cc(-[c-]4cccc4)nn3)nccc12 [Compound 20, 1-((4-Ferrocenyl-1H-1,2,3-triazol-1-yl)methyl)-9H-pyrido[3,4-b]indole] | 9.23 ± 1.96 | 11.2 ± 2.23 | 39.4 ± 7.9 | 43.9 ± 1.1 | > 50 | 29.4 ± 4.6 | >1.7 | >1.3 | > 50 | 
Cc1nc(Cn2cc(-[c-]3cccc3)nn2)cc2c1[nH]c1ccccc12.[Fe+2].c1cc[cH-]c1 [Compound 21, 1-Methyl-3-((4-ferrocenyl-1H-1,2,3-triazol-1-yl)methyl)-9H-pyrido[3,4-b]indole] | 7.14 ± 0.38 | 6.06 ± 1.36 | 17.7 ± 0.6 | > 50 | 19.7 ± 1.9 | 8.3 ± 1.4 | >6 | >2.8 | > 50 | 
O=c1[nH]cc(F)c(=O)[nH]1 [Compound 5-FU, 5-fluorouracil, reference compound] |  |  |  |  |  |  | 1.6 | 0.3 |  | IC50 ([3]; Homo sapiens, HepG2, 72 h, MTT, mean ± SD): 5.5 ± 0.6 µM; IC50 ([4]; Homo sapiens, SW-620, 72 h, MTT, mean ± SD): 9.4 ± 0.3 µM; IC50 ([5]; Homo sapiens, HCT-116, 72 h, MTT, mean ± SD): 5.2 ± 2.8 µM; IC50 ([6]; Homo sapiens, MCF7, 72 h): 23.9 ± 5.7 µM; IC50 ([7]; Homo sapiens, HEK-293T, noncancer cell line, MTT, mean ± SD): 8.1 ± 0.8 µM
Cc1nc(-c2cn(C[c-]3cccc3)nn2)cc2c1[nH]c1ccccc12.[Fe+2].c1cc[cH-]c1 [Compound 26, 3-(1-(Ferrocenylmethyl)-1H-1,2,3-triazol-4-yl)-1-methyl-9H-pyrido[3,4-b]indole] | 2.63 ± 0.27 | 4.02 ± 0.61 | 3.7 ± 0.2 | 12.3 ± 5 | 3.8 ± 0.4 | 35.2 ± 4.7 | 1.3 | 12.6 | 46.5 ± 1 | activity against MCF-7 relative to 5-FU (fold stronger) [6]: 3–6.5 fold
[Fe+2].c1cc[cH-]c1.c1ccc2c(c1)[nH]c1c(-c3cn(C[c-]4cccc4)nn3)nccc12 [Compound 25, 1-(1-(Ferrocenylmethyl)-1H-1,2,3-triazol-4-yl)-9H-pyrido[3,4-b]indole] | 3.62 ± 1.08 | 4.37 ± 1.79 | > 50 | > 50 | 23.1 ± 6.4 | 7.6 ± 0.5 | >6.6 | >1 | > 50 | 
COc1ccc2c3ccnc(C)c3n(CCn3cc(-[c-]4cccc4)nn3)c2c1.[Fe+2].c1cc[cH-]c1 [Compound 24, 7-Methoxy-1-methyl-9-(2-(4-ferrocenyl-1H-1,2,3-triazol-1-yl)ethyl)-9H-pyrido[3,4-b]indole] | 1.35 ± 0.28 | 2.31 ± 0.29 | > 50 | > 50 | > 50 | > 50 | >1 | >1 | > 50 | 
CCN(CC)CCCC(C)Nc1ccnc2cc(Cl)ccc12 (stereo not drawn) [CQ, chloroquine, reference compound] |  |  |  |  |  |  |  |  |  | IC50 ([1]; Plasmodium falciparum, 3D7, 72 h): 0.004 ± 0.002 µM; IC50 [2, 11]: 0.29 ± 0.1 µM
COc1ccc2c(c1)[nH]c1c(C)nccc12 [HAR, harmine] |  |  |  |  |  |  |  |  |  | IC50 [2, 11]: > 27.7 µM; IC50 PfDd2 [2, 9]: not active at all; IC50 ([3]; Homo sapiens, HepG2, 72 h): 18.7 ± 0.8 µM; IC50 ([4]; Homo sapiens, SW-620, 72 h): 4.7 ± 0.6 µM; IC50 ([5]; Homo sapiens, HCT-116, 72 h): 4 ± 0.8 µM; IC50 ([6]; Homo sapiens, MCF7, 72 h): 13.5 ± 1.1 µM; IC50 ([7]; Homo sapiens, HEK-293T): 12.6 ± 0.8 µM
